Patent publication US10954193B2 (Vanderbilt University, priority 2013, dated 2021)

These compounds were tested against recombinant Mcl-1 (residues 172-327) (Homo sapiens (Human), UniProt Q07820) (assay: Bak peptide binding assay, fluorescence polarization anisotropy competition (FITC-Bak), Mcl-1). Details: Table 3, binned ranges; FITC-Bak peptide 10 nM, Mcl-1 14 nM; read-out: Ki for inhibition of Mcl-1.
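Also: displacement of labeled Bak peptide read by fluorescence anisotropy, 10-point threefold dilutions from 20 µM top dose in 5% DMSO, 90 min incubation at room temperature.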
Procedure: Bak Peptide Binding Assay
Compound affinity was measured using a fluorescence polarization anisotropy competition assay. Anisotropy measurements were carried out in 384-well, black, flat-bottom plates (Greiner Bio-one, Monroe, N.C., USA). […] 10 nM FITC-Bak peptide and 14 nM recombinant Mcl-1 (residues 172-327) were added to assay buffer (3 mM dithiothreitol, 50 mM NaCl, 20 mM Tris, pH 7.5).
Compounds are diluted in DMSO in a 10-point, 3-fold serial dilution scheme. 2.5 uL compound is added to 47.5 uL of assay buffer containing FITC-Bak and protein, for a final DMSO concentration of 5% and a top concentration of 20 uM. […] The plate was mixed and incubated for 90 minutes at room temperature. Anisotropy is measured at excitation wavelength 480 nm and emission wavelength 535 nm using an EnVision Multi-label plate reader (PerkinElmer, Wellesley, Mass., USA).

recombinant Mcl-1 (residues 172-327), sequence (Q07820 172-327): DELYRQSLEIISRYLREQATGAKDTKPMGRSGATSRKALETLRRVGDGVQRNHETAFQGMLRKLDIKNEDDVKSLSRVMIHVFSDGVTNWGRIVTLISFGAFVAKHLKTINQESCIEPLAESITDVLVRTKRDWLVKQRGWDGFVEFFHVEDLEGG

`Cc1cc(OCCCc2c(C)n(CCC(=O)NS(C)(=O)=O)c3c(-c4cccn4C)cccc23)cc(C)c1Cl` [Example 84, 3-(3-(3-(4-chloro-3,5-dimethylphenoxy)propyl)-2-methyl-7-(1-methyl-1H-pyrrol-2-yl)-1H-indol-1-yl)-N-(methylsulfonyl)propanamide] and `Cc1cc(OCCCc2c(C)n(CCC(=O)O)c3c(-c4cccnc4C)cccc23)cc(C)c1Cl` [Example 75, 3-(3-(3-(4-chloro-3,5-dimethylphenoxy)propyl)-2-methyl-7-(2-methylpyridin-3-yl)-1H-indol-1-yl)propanoic acid] cannot be ordered by Ki: at most 100 nM for the first, at most 100 nM for the second.

`Cc1cc(OCCCc2c(C)n(CCC(=O)NS(=O)(=O)c3ccc(Oc4ccccc4)cc3)c3c(-c4c(C)nn(C)c4C)cccc23)cc(C)c1Cl` [Example 90, 3-(3-(3-(4-chloro-3,5-dimethylphenoxy)propyl)-2-methyl-7-(1,3,5-trimethyl-1H-pyrazol-4-yl)-1H-indol-1-yl)-N-((4-phenoxyphenyl)sulfonyl)propanamide] and `Cc1cc(OCCCc2c(C)n(Cc3ccc(C(=O)NS(=O)(=O)c4ccccc4)cc3)c3c(-c4c(C)nn(C)c4C)cccc23)cc(C)c1Cl` [Example 130, 4-((3-(3-(4-chloro-3,5-dimethylphenoxy)propyl)-2-methyl-7-(1,3,5-trimethyl-1H-pyrazol-4-yl)-1H-indol-1-yl)methyl)-N-(phenylsulfonyl)benzamide] cannot be ordered by Ki: at most 100 nM for the first, at most 100 nM for the second.

`Cc1cc(OCCCc2cn(C(C)CC(=O)O)c3ccccc23)cc(C)c1Cl` (racemic) [Example 55, (±)-3-(3-(3-(4-chloro-3,5-dimethylphenoxy)propyl)-1H-indol-1-yl)butanoic acid] and `Cc1cc(OCCCc2cn(C(CC(=O)O)c3ccccc3)c3ccccc23)cc(C)c1Cl` (racemic) [Example 56, (±)-3-(3-(3-(4-chloro-3,5-dimethylphenoxy)propyl)-1H-indol-1-yl)-3-phenylpropanoic acid] fall in the same range of Ki: 501 to 999 nM for the first, 501 to 999 nM for the second.

`Cc1cc(OCCCc2c(C)n(CCC(=O)O)c3c(-c4c(C)nn(CCN5CCOCC5)c4C)c(Cl)ccc23)cc(C)c1Cl` [Example 113, 3-(6-chloro-3-(3-(4-chloro-3,5-dimethylphenoxy)propyl)-7-(3,5-dimethyl-1-(2-morpholinoethyl)-1H-pyrazol-4-yl)-2-methyl-1H-indol-1-yl)propanoic acid] and `Cc1cc(OCCCc2c(C)n(CCC(=O)O)c3c(-c4c(C)nn(CCN5CCCC5)c4C)cccc23)cc(C)c1Cl` [Example 80, 3-(3-(3-(4-chloro-3,5-dimethylphenoxy)propyl)-7-(3,5-dimethyl-1-(2-(pyrrolidin-1-yl)ethyl)-1H-pyrazol-4-yl)-2-methyl-1H-indol-1-yl)propanoic acid] cannot be ordered by Ki: at most 100 nM for the first, at most 100 nM for the second.

First: Cc1cc(OCCCc2c(C#N)n(CC(=O)NS(C)(=O)=O)c3ccccc23)cc(C)c1Cl [Example 50, 2-(3-(3-(4-chloro-3,5-dimethylphenoxy)propyl)-2-cyano-1H-indol-1-yl)-N-(methylsulfonyl)acetamide]
Second: Cc1cc(OCCCc2c(C#N)n(CCC(=O)O)c3ccccc23)cc(C)c1Cl [Example 48, 3-(3-(3-(4-chloro-3,5-dimethylphenoxy)propyl)-2-cyano-1H-indol-1-yl)propanoic acid]
The Ki of the first is higher: 1000 to 9990 nM for the first, 501 to 999 nM for the second. The second binds more tightly here.

Compared with `Cc1cc(OCCCc2c(C(F)(F)F)n(Cc3cccc(C(=O)O)c3)c3c(Br)cccc23)cc(C)c1Cl` [Example 115, 3-((7-bromo-3-(3-(4-chloro-3,5-dimethylphenoxy)propyl)-2-(trifluoromethyl)-1H-indol-1-yl)methyl)benzoic acid], `Cc1cc(OCCCc2c(C(F)(F)F)n(CCC(=O)O)c3ccccc23)cc(C)c1Cl` [Example 135, 3-(3-(3-(4-chloro-3,5-dimethylphenoxy)propyl)-2-(trifluoromethyl)-1H-indol-1-yl)propanoic acid] is lower in Ki: 101 to 299 nM for the first, at most 100 nM for the second.

First: Cc1cc(OCCCc2c(C)n(CCC(=O)NS(C)(=O)=O)c3cc(Cl)ccc23)cc(C)c1Cl [Example 46, 3-(6-chloro-3-(3-(4-chloro-3,5-dimethylphenoxy)propyl)-2-methyl-1H-indol-1-yl)-N-(methylsulfonyl)propanamide]
Second: Cc1cc(OCCCc2cn(C(C)C(=O)NS(C)(=O)=O)c3ccccc23)cc(C)c1Cl (racemic) [Example 59, (±)-2-(3-(3-(4-chloro-3,5-dimethylphenoxy)propyl)-1H-indol-1-yl)-N-(methylsulfonyl)propanamide]
The Ki of the first is lower: at most 100 nM for the first, 501 to 999 nM for the second. The first binds more tightly here.

`Cc1cc(OCCCc2c(C)n(CC(=O)O)c3c(-c4c(C)nn(C)c4C)c(Cl)ccc23)cc(C)c1Cl` [Example 114, 2-(6-chloro-3-(3-(4-chloro-3,5-dimethylphenoxy)propyl)-2-methyl-7-(1,3,5-trimethyl-1H-pyrazol-4-yl)-1H-indol-1-yl)acetic acid] and `Cc1cc(OCCCc2c(C)n(Cc3ccc(C(=O)O)cc3)c3c(-c4c(C)n[nH]c4C)cccc23)cc(C)c1Cl` [Example 98, 4-((3-(3-(4-chloro-3,5-dimethylphenoxy)propyl)-7-(3,5-dimethyl-1H-pyrazol-4-yl)-2-methyl-1H-indol-1-yl)methyl)benzoic acid] cannot be ordered by Ki: at most 100 nM for the first, at most 100 nM for the second.

`O=C(O)CCn1cc(CCCOc2cccc3ccccc23)c2c(Cl)cccc21` [Example 16, 3-(4-chloro-3-(3-(naphthalen-1-yloxy)propyl)-1H-indol-1-yl)propanoic acid] and `O=C(O)CCn1cc(CCCOc2cccc3ccccc23)c2ccccc21` [Example 11, 3-(3-(3-(naphthalen-1-yloxy)propyl)-1H-indol-1-yl)propanoic acid] fall in the same range of Ki: 1000 to 9990 nM for the first, 1000 to 9990 nM for the second.

First: Cc1cnccc1-c1cccc2c(CCCOc3cc(C)c(Cl)c(C)c3)c(C)n(CCC(=O)O)c12 [Example 72, 3-(3-(3-(4-chloro-3,5-dimethylphenoxy)propyl)-2-methyl-7-(3-methylpyridin-4-yl)-1H-indol-1-yl)propanoic acid]
Second: Cc1cc(OCCCc2cn(CCC(=O)O)c3c(Br)cccc23)cc(C)c1Cl [Example 29, 3-(7-bromo-3-(3-(4-chloro-3,5-dimethylphenoxy)propyl)-1H-indol-1-yl)propanoic acid]
The Ki of the first is lower: at most 100 nM for the first, 301 to 500 nM for the second. The first binds more tightly here.

First: Cc1cc(OCCCc2c(C)n(Cc3cccc(C(=O)O)c3)c3c(-c4c(C)nn(Cc5ccccn5)c4C)cccc23)cc(C)c1Cl [Example 111, 3-((3-(3-(4-chloro-3,5-dimethylphenoxy)propyl)-7-(3,5-dimethyl-1-(pyridin-2-ylmethyl)-1H-pyrazol-4-yl)-2-methyl-1H-indol-1-yl)methyl)benzoic acid]
Second: Cc1cc(OCCCc2c(C)n(Cc3cccc(C(=O)NS(=O)(=O)c4cccnc4)c3)c3c(-c4c(C)nn(C)c4C)cccc23)cc(C)c1Cl [Example 129, 3-((3-(3-(4-chloro-3,5-dimethylphenoxy)propyl)-2-methyl-7-(1,3,5-trimethyl-1H-pyrazol-4-yl)-1H-indol-1-yl)methyl)-N-(pyridin-3-ylsulfonyl)benzamide]
The Ki of the first is lower: at most 100 nM for the first, 101 to 299 nM for the second. The first binds more tightly here.

`Cc1cc(OCC(C)Cc2cn(CCC(=O)O)c3ccccc23)cc(C)c1Cl` (stereo not drawn) [Example 17, 3-(3-(3-(4-chloro-3,5-dimethylphenoxy)-2-methylpropyl)-1H-indol-1-yl)propanoic acid] and `O=C(O)Cn1cc(CCCOc2cccc3ccccc23)c2ccccc21` [Example 6, 2-(3-(3-(naphthalen-1-yloxy)propyl)-1H-indol-1-yl)acetic acid] fall in the same range of Ki: 1000 to 9990 nM for the first, 1000 to 9990 nM for the second.
